This is an account of results in patent US10695341B2, “Compositions and methods for treating endometriosis” (UNIVERSITY OF SOUTH FLORIDA, priority 2014, dated 2020).

The assay has as its system endometriotic lesions. The assay is described as follows: Effect of hydroxychloroquine on lesion formation in mouse endometriosis model (Example 3). Format: in vivo, C57BL/6 mice. As to conditions: 60 mg/kg intraperitoneal, lesions evaluated 14 days after start; P between groups 0.0019. Here is the method: To determine the effect of hydroxychloroquine on endometriosis in vivo, mice (6-8 week old C57BL/6 background mice) were fed on a mouse diet and given ad libitum access to water and kept on a light/dark cycle of 12/12 h under controlled conditions. Prior to any invasive procedure, the mice were anesthetized using Isofluorane (initial vaporizer flow rate of 3-5%) implemented once prior to an invasive procedure. The mice were also given Ketoprofen (10 mg/kg) subcutaneously as a post-operative analgesic agent for the first 24 hours and then as needed. All surgical procedures were performed under sterile conditions. Mice were ordered at 3-5 weeks of age to receive them and allow them to acclimate to the housing conditions prior to the start of the investigation when the mice are about 6 to about 8 weeks of age. […] The fragments were suspended in about 0.6 ml of phosphate buffered saline and were injected with an 18-gauge needle through the abdominal wall below the umbilicus into the peritoneal cavity of recipient mice with a ratio of one donor to two recipients (equivalent quantities). […] Lesions were identified, removed, and analyzed. […]

Turning to `CCN(CCO)CCCC(C)Nc1ccnc2cc(Cl)ccc12` (stereo not shown) [HCQ, hydroxychloroquine], the “effect on endometriotic lesions (FIG. 5)” value is “effectiveness”.
